Measured values published in patent US8853172B2, “Anti-plant-virus agent” (National University Corporation Hokkaido University, priority 2009, dated 2014).

Assays:
Format in all cases: in vivo
Turnip mosaic virus [1] = experiment: Experiment I: spraying before and after inoculation of Arabidopsis thaliana with Turnip mosaic virus (inoculation solution A), onset of symptoms; conditions: for columns that showed symptoms / columns that were healthy: Arabidopsis thaliana (Columbia), seven columns inoculated, 20 mM sprayed on days 3 and 1 before and 1, 3, 5, 8, 10 after inoculation, observed on the 14th day
Experimental: (§1) Each of the frozen tobacco leaves infected with Turnip mosaic virus and Cucumber mosaic virus (Y strain) was triturated in 0.1M phosphate-buffer solution at a 10-fold amount (containing 10 mM diethyldithiocarbamic acid (DIECA)). These were defined as virus inoculation solutions A and B. These virus inoculation solutions A and B are solutions causing a 100% incidence.
(§2) Three expanded leaves per one column of Arabidopsis thaliana (Columbia) were inoculated with each virus via the aforementioned virus inoculation solutions A and B by the carborundum method.
(§3) On the 3rd day and the 1st day prior to the date of the virus inoculation, and on the 1st day, the 3rd day, the 5th day, the 8th day and the 10th days after the date of the virus inoculation, an aqueous solution of 0.1% of a spreading agent (Approach BI: manufactured by Kao Corporation) was sprayed thereon.
(§4) On the 14th day after the virus inoculation, the presence or absence of disease symptoms such as yellow mosaic of new leaves, leaf curling, and plant stunting was observed. […] It can be seen that the above virus inoculation solutions A and B are strong solutions in view of the fact that the inoculation with the solutions reliably causes the onset of symptoms.
(§5) Each was dissolved in water so as to be 20 mM ascorbic acid and 0.1% of a spreading agent (Approach BI: manufactured by Kao Corporation), thereby obtaining an aqueous solution of ascorbic acid. Except that the aqueous solution of ascorbic acid was sprayed onto Arabidopsis thaliana instead of the aqueous solution of the spreading agent, in the same manner as Comparative Example 1, Turnip mosaic virus and Cucumber mosaic virus (Y strain) were inoculated onto Arabidopsis thaliana, and then the onset of symptoms was examined.
Ascorbic acid 6-palmitate, a nonionic surfactant (polyoxyethylene sorbitan monolaurate) and a spreading agent (Approach BI: manufactured by Kao Corporation) were dissolved in N,N-dimethylformamide. This solution was added to water to obtain an aqueous solution of the anti-plant virus agent comprising 20 mM ascorbic acid 6-palmitate, 0.05% of a nonionic surfactant, 0.1% of a spreading agent, and 1% of N,N-dimethylformamide. Except that the aqueous solution of the anti-plant virus agent was sprayed thereon instead of the aqueous solution of ascorbic acid, in the same manner as Comparative Example 2, Turnip mosaic virus and Cucumber mosaic virus (Y strain) were inoculated onto Arabidopsis thaliana, and then the onset of symptoms was examined.
Each was added to water so as to be 20 mM ascorbic acid 2-phosphate ester 3-sodium and 0.1% of a spreading agent (Approach BI: manufactured by Kao Corporation), thereby obtaining an aqueous solution of the anti-plant virus agent. Except that the aqueous solution of the anti-plant virus agent was sprayed thereon instead of the aqueous solution of ascorbic acid, in the same manner as Comparative Example 2, Turnip mosaic virus was inoculated onto Arabidopsis thaliana, and then the onset of symptoms was examined.

[2] = system: Cucumber mosaic virus (Y strain); experiment: Experiment I: spraying before and after inoculation of Arabidopsis thaliana with Cucumber mosaic virus (Y strain) (inoculation solution B), onset of symptoms; conditions: Arabidopsis thaliana (Columbia), seven columns inoculated, 20 mM sprayed on days 3 and 1 before and 1, 3, 5, 8, 10 after inoculation, observed on the 14th day
Experimental: as §1, §2, §3, §4, §5
Ascorbic acid 6-palmitate, a nonionic surfactant (polyoxyethylene sorbitan monolaurate) and a spreading agent (Approach BI: manufactured by Kao Corporation) were dissolved in N,N-dimethylformamide. […]

Turnip mosaic virus [3] = experiment: Experiment III: therapeutic test, spraying after inoculation of Arabidopsis thaliana with Turnip mosaic virus (inoculation solution C); conditions: Arabidopsis thaliana (Columbia), ten columns inoculated, 20 mM sprayed on days 1, 4, 7 and 10 after inoculation, observed on the 16th day
Experimental: A nonionic surfactant (polyoxyethylene sorbitan monolaurate) and a spreading agent (Approach BI: manufactured by Kao Corporation) were dissolved in N,N-dimethylformamide. This solution was added to water to obtain an aqueous solution comprising 0.05% of a nonionic surfactant, 0.1% of a spreading agent, and 1% of N,N-dimethylformamide.
(§6) Two expanded leaves per one column of Arabidopsis thaliana (Columbia) were inoculated with the virus via the aforementioned virus inoculation solution C by the carborundum method.
On the 1st day, the 4th day, the 7th day and the 10th day after the date of the virus inoculation, the aforementioned aqueous solution was sprayed thereon.
On the 16th day after the date of the virus inoculation, the presence or absence of disease symptoms such as yellow mosaic of new leaves, leaf curling, plant stunting was observed.
Ascorbic acid 6-palmitate, a nonionic surfactant (polyoxyethylene sorbitan monolaurate) and a spreading agent (Approach BI: manufactured by Kao Corporation) were dissolved in N,N-dimethylformamide. This solution was added to water to obtain an aqueous solution of the anti-plant virus agent comprising 20 mM ascorbic acid 6-palmitate, 0.05% of a nonionic surfactant, 0.1% of a spreading agent, and 1% of N,N-dimethylformamide.
Except that the aqueous solution of the anti-plant virus agent was sprayed onto Arabidopsis thaliana instead of the aforementioned aqueous solution, in the same manner as Comparative Example 6, Turnip mosaic virus was inoculated onto Arabidopsis thaliana, and then the onset of the symptoms was examined.

[4] = system: Tomato aspermy virus (V strain); experiment: Experiment IV: spraying of tomato (cultivar Beiju) inoculated with Tomato aspermy virus (V strain); conditions: four columns inoculated, 2 mM sprayed every day for two weeks from inoculation, observed on the 30th day
Experimental: The frozen tobacco (Nicotiana benthamiana) infected with Tomato aspermy virus (V strain) was triturated in 0.1M phosphate-buffer solution at a 10-fold amount (containing 10 mM DIECA), and was filtered through a double gauze and the filtrate was defined as virus inoculation solution D. Onto fully expanded leaves of the seedling stage of tomato (cultivar: Beiju) after a period of two weeks from seeding, the virus inoculation solution D was inoculated by physical application via the carborundum method.
After the virus inoculation, as a result of examination of disease symptoms over time, mosaic or leaf curling could be recognized after the 5th day, and lethal necrosis symptoms were shown after the period of two weeks, and all of the five columns inoculated with Tomato aspermy virus (V strain) withered.
200 mM of ascorbic acid 6-palmitate was dissolved in N,N-dimethylformamide. This solution was diluted 100 times with distilled water to obtain an aqueous solution of the anti-plant virus agent comprising 2 mM ascorbic acid 6-palmitate and 1% of N,N-dimethylformamide. In the same manner as Comparative Example 7, the tomato was inoculated with tomato aspermy virus (V strain). During the two weeks from the date of virus inoculation, the aforementioned aqueous solution was sprayed thereon every day, and disease symptoms were examined over time. […]

Turnip mosaic virus [5] = experiment: Experiment II: preventive test, spraying before inoculation of Arabidopsis thaliana with Turnip mosaic virus (inoculation solution C); conditions: for columns that showed symptoms / columns that were healthy: Arabidopsis thaliana (Columbia), ten columns inoculated, 20 mM sprayed on the 3rd and 1st day before inoculation, observed on the 16th day
Experimental: The frozen tobacco leaves infected with Turnip mosaic virus were triturated in 0.1M phosphate-buffer solution at a 10-fold amount (containing 10 mM DIECA). Then, this was diluted 50 times with the same buffer solution. This was defined as virus inoculation solution C.
as §6
On the 3rd day and the 1st day prior to the date of the virus inoculation, an aqueous solution of 0.1% a spreading agent (Approach BI: manufactured by Kao Corporation) was sprayed thereon.
On the 16th day after the date of the virus inoculation, the presence or absence of disease symptoms such as yellow mosaic of new leaves, leaf curling, and plant stunting was observed.
as §5, with “3,” for “1,”, “was” for “and Cucumber mosaic virus (Y strain) were”

CCCCCCCCCCCCCCCC(=O)OC[C@H](O)[C@H]1OC(=O)C(O)=C1O [ascorbic acid 6-palmitate]
columns that showed symptoms (Turnip mosaic virus [1]): five | columns that were healthy (Turnip mosaic virus [1]): two | columns that showed symptoms [2]: five | columns that were healthy [2]: two | columns that showed symptoms (Turnip mosaic virus [3]): one | columns that were healthy (Turnip mosaic virus [3]): nine | columns that were healthy [4]: two | columns that withered [4]: two

CCCCCCCCC(CCCCCC)C(=O)OCC(OC(=O)C(CCCCCC)CCCCCCCC)C1OC(=O)C(OC(=O)C(CCCCCC)CCCCCCCC)=C1OC(=O)C(CCCCCC)CCCCCCCC (stereo not drawn) [ascorbyl 2,3,5,6-tetrahexyldecanoate]
columns that showed symptoms (Turnip mosaic virus [3]): one | columns that were healthy (Turnip mosaic virus [3]): nine

O=C1O[C@H]([C@@H](O)CO)C(O)=C1O [ascorbic acid, reference compound]
columns that showed symptoms (Turnip mosaic virus [1]): seven | anti-plant viral activity (conclusion in words) (Turnip mosaic virus [1]; Experiment I, 20 mM spray): does not have any anti-plant viral activity | columns that showed symptoms [2]: seven | columns that showed symptoms (Turnip mosaic virus [5]): two | columns that were healthy (Turnip mosaic virus [5]): eight | anti-plant viral activity / preventive effect (conclusion in words) (Turnip mosaic virus [5]; Experiment II, 20 mM sprayed before inoculation): do not have any anti-plant viral activity

O=C1O[C@H]([C@@H](O)CO)C([O-])=C1OP(=O)([O-])[O-].[Na+].[Na+].[Na+] [ascorbic acid 2-phosphate ester 3-sodium]
columns that showed symptoms (Turnip mosaic virus [1]): five | columns that were healthy (Turnip mosaic virus [1]): two | columns that were healthy (Turnip mosaic virus [5]): ten

CCCCCCCCCCCCCCCCCC(=O)OC[C@H](O)[C@H]1OC(=O)C(O)=C1O [ascorbic acid 6-stearate]
columns that showed symptoms (Turnip mosaic virus [3]): one | columns that were healthy (Turnip mosaic virus [3]): nine

CCCCCCCCCCCCCCCC(=O)OC[C@H](O)[C@H]1OC(=O)C(OC(=O)CCCCCCCCCCCCCCC)=C1O [ascorbic acid 2,6-dipalmitate]
columns that showed symptoms (Turnip mosaic virus [3]): one | columns that were healthy (Turnip mosaic virus [3]): nine

O=C1O[C@H]([C@@H](O)CO)C([O-])=C1O.[Na+] [sodium ascorbate]
columns that showed symptoms (Turnip mosaic virus [5]): three | columns that were healthy (Turnip mosaic virus [5]): seven

O=C1O[C@H]([C@@H](O)CO)C(O)=C1O[C@H]1O[C@H](CO)[C@@H](O)[C@H](O)[C@H]1O [ascorbic acid 2-glucoside]
columns that showed symptoms (Turnip mosaic virus [5]): one | columns that were healthy (Turnip mosaic virus [5]): nine
